For six molecules, MIC results are on record in DBAASP.

Values after ≈ are worked out from the molar mass of the structure shown. Values joined by “and” are separate entries in the source; they are usually repeats but may differ in a detail not shown here. Identical values can stand only once. Some results are limits rather than exact numbers.

Common to all, as to test: ≥ marks a high value that may be exact or a test limit, other limits are often not marked, values filed in µg/mL are converted to µM
For assay [1], the system named is Bacillus subtilis DELTA.
Assay [2] relates to Candida parapsilosis.
Assay [3] has as its system Escherichia coli DH5alpha.
Assay [4] relates to Pseudomonas aeruginosa PAO1.
In assay [5] the test system is Zymomonas mobilis ATCC 10988.
Assay [6] deals with Aspergillus flavus KCTC 6905.
Assay [7] has as its system Aspergillus fumigatus KCTC 6145.
For assay [8], the system named is Candida albicans KCTC 7270.
Assay [9] relates to Candida krusei CCARM 14017.
Assay [10] concerns Candida parapsilosis CCARM 14016.
The test system of assay [11] is Candida tropicalis KCTC 7221.
The test system of assay [12] is Fusarium verticillioides KCTC 6149.
Assay [13] deals with Trichosporon beigelii KCTC 7707.
Assay [14] relates to Escherichia coli W3110.
The subject of assay [15] is Klebsiella pneumoniae ATCC BAA-1705.
For assay [16], the system named is Escherichia coli UB1005.
For assay [17], the system named is Pseudomonas aeruginosa H374.
The subject of assay [18] is Pseudomonas aeruginosa H547.
Assay [19] deals with Pseudomonas aeruginosa H744.
Assay [20] concerns Pseudomonas aeruginosa K799.
Assay [21] concerns Pseudomonas aeruginosa Z61.
The subject of assay [22] is Salmonella enterica subsp. enterica serovar Typhimurium ATCC 14028s.

By MIC is commonly meant the lowest concentration that inhibits growth of the organism. With `CC[C@H](C)[C@H](NC(=O)[C@H](CCCCN)NC(=O)[C@H](CC(C)C)NC(=O)[C@H](CC(C)C)NC(=O)CN)C(=O)N[C@H](C(=O)N[C@@H](CCCCN)C(=O)N[C@@H](CCCCN)C(=O)N[C@@H](CC(C)C)C(=O)N[C@@H](CC(C)C)C(N)=O)[C@@H](C)CC` [GLLKIIKKLL], the MIC is 6.15 µM (≈ 6.99 µg/mL) in assay [1]; 6.15 µM (≈ 6.99 µg/mL) in assay [2]; no less than 87.8 µM in assay [3]; 2.63 µM (≈ 3 µg/mL) in assay [4]; 13.2 µM (≈ 15 µg/mL) in assay [5].
With `CC[C@H](C)[C@H](NC(=O)CNC(=O)[C@H](CCC(N)=O)NC(=O)[C@H](C)NC(=O)[C@@H](NC(=O)[C@H](CCCCN)NC(=O)[C@H](CCCCN)NC(=O)[C@H](CC(C)C)NC(=O)[C@H](C)NC(=O)[C@H](CC(N)=O)NC(=O)[C@H](CC(C)C)NC(=O)CN)C(C)C)C(=O)N[C@@H](Cc1cnc[nH]1)C(=O)N[C@@H](CCC(=O)O)C(=O)N[C@@H](C)C(=O)N[C@@H](C)C(=O)N[C@@H](CCCCN)C(=O)N[C@@H](CC(C)C)C(=O)N[C@H](C(=O)N[C@@H](CC(N)=O)C(=O)N[C@@H](CC(N)=O)C(=O)N[C@@H](Cc1cnc[nH]1)C(=O)N[C@H](C(=O)N[C@@H](CCC(N)=O)C(N)=O)C(C)C)[C@@H](C)CC` [GLNALKKVAQGIHEAAKLINNHVQ], the MIC in [6] is ≥ 32 µM and 16 µM; in assay [7], ≥ 32 µM and 16 µM; in [8], 4 µM and 8 µM; in [9], 6 µM and 8 µM; in assay [10], no less than 64 µM; in assay [11], 2 µM and 1 µM. For the same molecule, the MIC in assay [12] is no less than 32 µM; in assay [13], 1.5 µM and 1 µM.
As to `CC[C@H](C)[C@H](NC(=O)[C@H](C)NC(=O)[C@H](CCC(=O)O)NC(=O)[C@H](Cc1cnc[nH]1)NC(=O)[C@H](C)NC(=O)CNC(=O)[C@H](CCC(N)=O)NC(=O)[C@H](Cc1ccccc1)NC(=O)[C@@H](NC(=O)[C@H](CCCCN)NC(=O)[C@H](CCCCN)NC(=O)[C@H](CC(C)C)NC(=O)[C@H](C)NC(=O)[C@H](CC(N)=O)NC(=O)[C@H](CC(C)C)NC(=O)CN)C(C)C)C(=O)N[C@@H](CCCCN)C(=O)N[C@@H](CC(C)C)C(=O)N[C@@H](C)C(=O)N[C@@H](CC(N)=O)C(=O)N[C@@H](CC(N)=O)C(=O)N[C@@H](Cc1cnc[nH]1)C(=O)N[C@H](C(=O)N[C@@H](CCC(N)=O)C(N)=O)C(C)C` [GLNALKKVFQGAHEAIKLANNHVQ], the MIC was no less than 64 µM in assay [6]; 8 µM and 16 µM in assay [8]; 8 µM (≈ 20.8 µg/mL) in assay [9]; no less than 64 µM in [10]; 2 µM (≈ 5.2 µg/mL) in assay [11]; no less than 64 µM in assay [12]. The MIC in [13] was 6 µM and 2 µM.
For the molecule `CC[C@H](C)[C@H](N)C(=O)N[C@@H](Cc1c[nH]c2ccccc12)C(=O)N[C@@H](Cc1c[nH]c2ccccc12)C(=O)N[C@@H](C)C(=O)N[C@@H](CCCCN)C(=O)N[C@@H](Cc1c[nH]c2ccccc12)C(=O)NCC(=O)N[C@@H](CC(C)C)C(=O)N[C@@H](CCCCN)C(=O)N[C@@H](Cc1c[nH]c2ccccc12)C(=O)N[C@@H](CC(C)C)C(=O)N[C@@H](CCCN=C(N)N)C(=O)N[C@@H](Cc1ccc(O)cc1)C(=O)N[C@@H](CCCN=C(N)N)C(=O)N[C@@H](CCCN=C(N)N)C(=O)N[C@H](C(=O)N[C@@H](Cc1ccc(O)cc1)C(=O)O)[C@@H](C)CC` [IWWAKWGLKWLRYRRIY], the MIC in assay [14] came to 2 µM (≈ 4.79 µg/mL); in [15], 16 µM (≈ 38.3 µg/mL).
As to `CC[C@H](C)[C@H](NC(=O)[C@H](CC(C)C)NC(=O)[C@@H]1CCCN1C(=O)[C@H](CCCCN)NC(=O)[C@H](C)NC(=O)[C@@H](NC(=O)[C@@H](NC(=O)[C@H](CC(C)C)NC(=O)[C@@H](NC(=O)[C@H](CO)NC(=O)[C@@H](NC(=O)[C@H](CCCCN)NC(=O)[C@H](C)NC(=O)[C@H](CO)NC(=O)[C@@H](NC(=O)[C@H](CC(C)C)NC(=O)[C@H](CC(C)C)NC(=O)[C@H](CCCCN)NC(=O)[C@@H](NC(=O)[C@H](Cc1ccccc1)NC(=O)[C@H](CO)NC(=O)[C@H](CCCCN)NC(=O)[C@H](CCCCN)NC(=O)[C@@H](N)CCCCN)[C@@H](C)CC)[C@@H](C)O)C(C)C)C(C)C)[C@@H](C)O)[C@@H](C)O)C(=O)N[C@@H](CO)C(=O)N[C@@H](CO)C(=O)O` [KKKSFIKLLTSAKVSVLTTAKPLISS], the MIC in assay [16] turned out to be 11.5 µM (≈ 32 µg/mL); in assay [17], 22.9 µM (≈ 64 µg/mL); in assay [18] it was 22.9 µM (≈ 64 µg/mL); in [19], 22.9 µM (≈ 64 µg/mL); in assay [20] it was 22.9 µM (≈ 64 µg/mL); in [21] it was 22.9 µM (≈ 64 µg/mL). The molecule further displayed an MIC in assay [22] of 22.9 µM (≈ 64 µg/mL).
For `CC[C@H](C)[C@H](NC(=O)[C@H](CC(C)C)NC(=O)[C@H](C)NC(=O)[C@@H]1CCCN1C(=O)[C@H](CC(C)C)NC(=O)CNC(=O)[C@@H](NC(=O)[C@@H](NC(=O)[C@H](CC(C)C)NC(=O)[C@@H](NC(=O)[C@H](CCCCN)NC(=O)[C@H](CO)NC(=O)CNC(=O)CNC(=O)[C@H](CCCCN)NC(=O)[C@@H](NC(=O)[C@H](CC(C)C)NC(=O)[C@H](CC(N)=O)NC(=O)[C@H](CCCCN)NC(=O)[C@@H](NC(=O)[C@H](Cc1ccccc1)NC(=O)[C@H](CO)NC(=O)[C@H](CCCCN)NC(=O)[C@H](Cc1c[nH]c2ccccc12)NC(=O)[C@@H](N)CCCCN)[C@@H](C)CC)[C@@H](C)O)[C@@H](C)CC)[C@@H](C)O)[C@@H](C)O)C(=O)N[C@@H](CO)C(=O)O` [KWKSFIKNLTKGGSKILTTGLPALIS], the MIC in [16] was 1.43 µM (≈ 4 µg/mL); in [17] it was 2.85 µM (≈ 8 µg/mL); in [18] it was 11.4 µM (≈ 32 µg/mL); in assay [19], 5.71 µM (≈ 16 µg/mL); in assay [20], 22.8 µM (≈ 64 µg/mL); in assay [21] it was 11.4 µM (≈ 32 µg/mL). The MIC in assay [22] came out at 15.3 µM (≈ 43 µg/mL).
